Values of other authors in article PMC3598812, “Evaluation of Anti-Hyperalgesic and Analgesic Effects of Two Benzodiazepines in Human Experimental Pain: A Randomized Placebo-Controlled Study” (PLoS ONE, 2013).

Assays:
[1] = system: patients / volunteers; details: placebo-controlled, double-blind trial, 114 outpatients with anxiety; mean doses 59 mg clobazam daily, 25 mg diazepam daily; ref Micromedex 2009; cited from earlier work
[2] = trial protocol, cited from earlier work
[3] = system: healthy male subjects; parameters: method as in PMID 19038771; details: capsaicin model, previous study; standard deviation 11.54; cited from earlier work

CN1C(=O)CN=C(c2ccccc2)c2cc(Cl)ccc21 [diazepam]
Dizziness, share of treated patients [1]: 11% | Sedation, share of treated patients [1]: 44%

O=C1CC(=O)N(c2ccccc2)c2cc(Cl)ccc2N1 [N-desmethylclobazam]
Half life (t1/2) ([2]; drug background): 50 h

CCOC(=O)c1ncn2c1CN(C)C(=O)c1cc(F)ccc1-2 [Flumazenil]
t1/2 ([2]; iv): about 50 minutes

CC(C)C[C@H](CN)CC(=O)O [pregabalin]
Reduction in the area of hyperalgesia [3]: 10.91 cm^2
